This is an account of results in patent US20040009904A1, “APL immunoreactive peptides, conjugates thereof and methods of treatment for aPL antibody-mediated pathologies” (priority 1995, published 2004).

The experiment deals with ACA-6701. The experiment can be described thus: Competitive fluorescence polarization assay (cFP). The class given is binding, human. How it is done:
The above described dbFP assay provides binding constants for FITC-labeled peptides and requires on the order of 0.5 mg of purified antibody. The cFP assay provides binding constants for peptides that lack the FITC group and it consumes less antibody, on the order of 10 μg. The cFP assay is modified from that reported in PanVera Applications Guide (1994) PanVera Corporation such that it consumes 50-fold less antibody. Briefly, antibody (ACA 6701) is mixed with trace FITC labeled peptide (CB2*-F) and enough time is allowed for equilibrium to be reached. This was 1 hour for ACA 6701 and CB2*-F. Increasing concentrations of the unlabeled peptide being tested (CB2* or 3B10) are then added to the tube. After each addition, sufficient time, approximately 15 minutes, is allowed for equilibrium to be reached and the mP value was read. […] This Δ(mP) value should be 20 or more mP units to insure reliable results.
As unlabeled (no FITC) peptide (I) is added to inhibit F from binding to R, Y decreases from its maximum value of PH′ to a plateau of PL which should agree with that in Equation 1. These titrations are shown in FIGS. 26 and 27 for displacement of CB2*-F from ACA-6701 by CB2* and 3B10, respectively. The equation describing this titration was derived and is: [formula]
where PL is the same as in Equation 1. […]

Bridge positions count the residues as written; N and C are the ends. Peptide text beside a SMILES is read from it.

By Ki is commonly meant the dissociation constant of the complex between target and ligand, obtained from inhibition or displacement. `CC(C)C[C@@H]1NC(=O)[C@H](CC(C)C)NC(=O)[C@H](CC(C)C)NC(=O)[C@@H](NC(=O)[C@@H]2CCCN2C(=O)CNC(=O)[C@H](C)N)CSSC[C@@H](C(=O)N2CCC[C@H]2C(=O)NCC(=O)O)NC(=O)[C@H](CCCNC(=N)N)NC(=O)[C@H](CC(=O)O)NC(=O)[C@@H]2CCCN2C(=O)[C@H](C)NC1=O` [3B10, AGPCLLLAPDRCPG] (H-AGPCLLLAPDRCPG-OH; disulfide 4-12) had a Ki (cFP, displacement of CB2*-F from ACA-6701) of 313 nM. Further, the “binding to ACA-6701 less than binding of CB2*” value (versus CB2*) came out at 9 fold.
